Laboratory results from PubChem BioAssay (NCI).
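Abbreviation: GI50, concentration required for 50% inhibition of growth. TGI: concentration producing complete growth inhibition.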

Columns and labels:
Assay in all cases: inhibition of tumour cell growth, NCI panel, 384-well format
786-0 renal = tested on: 786-0 renal
A498 renal = tested on: A498 renal
A549 NSCLC = tested on: A549 NSCLC
ACHN renal = tested on: ACHN renal
BT-549 breast = tested on: BT-549 breast
CAKI-1 renal = tested on: CAKI-1 renal
COLO 205 colon = tested on: COLO 205 colon
DU-145 prostate = tested on: DU-145 prostate
EKVX NSCLC = tested on: EKVX NSCLC
HCC-2998 colon = tested on: HCC-2998 colon
HCT-116 colon = tested on: HCT-116 colon
HCT-15 colon = tested on: HCT-15 colon
HL-60(TB) leukemia = tested on: HL-60(TB) leukemia
HOP-62 NSCLC = tested on: HOP-62 NSCLC
HOP-92 NSCLC = tested on: HOP-92 NSCLC
HS 578T breast = tested on: HS 578T breast
HT29 colon = tested on: HT29 colon
IGROV1 ovarian = tested on: IGROV1 ovarian
KM12 colon = tested on: KM12 colon
LOX IMVI melanoma = tested on: LOX IMVI melanoma
M14 melanoma = tested on: M14 melanoma
MALME-3M melanoma = tested on: MALME-3M melanoma
MCF7 breast = tested on: MCF7 breast
MDA-MB-231 breast = tested on: MDA-MB-231 breast
MDA-MB-435 melanoma = tested on: MDA-MB-435 melanoma
MDA-MB-468 breast = tested on: MDA-MB-468 breast
MOLT-4 leukemia = tested on: MOLT-4 leukemia
NCI-H226 lung = tested on: NCI-H226 lung
NCI-H23 lung = tested on: NCI-H23 lung
NCI-H322M lung = tested on: NCI-H322M lung
NCI-H460 NSCLC = tested on: NCI-H460 NSCLC
NCI-H522 lung = tested on: NCI-H522 lung
NCI/ADR-RES ovarian = tested on: NCI/ADR-RES ovarian
OVCAR-3 ovarian = tested on: OVCAR-3 ovarian
OVCAR-4 ovarian = tested on: OVCAR-4 ovarian
OVCAR-5 ovarian = tested on: OVCAR-5 ovarian
OVCAR-8 ovarian = tested on: OVCAR-8 ovarian
PC-3 prostate = tested on: PC-3 prostate
RPMI-8226 leukemia = tested on: RPMI-8226 leukemia
RXF 393 renal = tested on: RXF 393 renal
SF-268 CNS = tested on: SF-268 CNS
SF-295 CNS = tested on: SF-295 CNS
SF-539 CNS = tested on: SF-539 CNS
SK-MEL-28 melanoma = tested on: SK-MEL-28 melanoma
SK-MEL-5 melanoma = tested on: SK-MEL-5 melanoma
SK-OV-3 ovarian = tested on: SK-OV-3 ovarian
SN12C renal = tested on: SN12C renal
SNB-19 CNS = tested on: SNB-19 CNS
SNB-75 CNS = tested on: SNB-75 CNS
SR leukemia = tested on: SR leukemia
SW-620 colon = tested on: SW-620 colon
T-47D breast = tested on: T-47D breast
TK-10 renal = tested on: TK-10 renal
U251 glioblastoma = tested on: U251 glioblastoma
UACC-257 melanoma = tested on: UACC-257 melanoma
UACC-62 melanoma = tested on: UACC-62 melanoma
UO-31 renal = tested on: UO-31 renal

With `COc1cc2nccc(Oc3ccc(NC(=O)Nc4cc(C)on4)c(Cl)c3)c2cc1OC` as the molecule, how does the GI50 (786-0 renal) read?
The GI50 was 3.79 µM.

What about the TGI (786-0 renal) of the same molecule?
Its TGI is 12 µM.

What about the GI50 (A498 renal) of the same molecule?
Its GI50 is 5.6 µM.

What about the TGI (A498 renal) of the same molecule?
The TGI was 21 µM.

And the GI50 (A549 NSCLC)?
Its GI50 is 3.25 µM.

And the TGI (A549 NSCLC)?
The TGI was 11 µM.

What about the GI50 (ACHN renal) of the same molecule?
The GI50 was 3.53 µM.

What about the TGI (ACHN renal) of the same molecule?
Its TGI is 11.6 µM.

What about the GI50 (BT-549 breast) of the same molecule?
The GI50 was 3.2 µM.

What about the TGI (BT-549 breast) of the same molecule?
The TGI was 7.18 µM.

And the GI50 (CAKI-1 renal)?
The GI50 was 2.67 µM.

What about the TGI (CAKI-1 renal) of the same molecule?
The TGI was 6.87 µM.

What about the GI50 (COLO 205 colon) of the same molecule?
Its GI50 is 2.59 µM.

And the TGI (COLO 205 colon)?
The TGI was 8.26 µM.

What about the GI50 (DU-145 prostate) of the same molecule?
Its GI50 is 5.63 µM.

And the TGI (DU-145 prostate)?
Its TGI is 81.3 µM.

What about the GI50 (EKVX NSCLC) of the same molecule?
The GI50 was 4.4 µM.

What about the TGI (EKVX NSCLC) of the same molecule?
The TGI was 20.9 µM.

What about the GI50 (HCC-2998 colon) of the same molecule?
Its GI50 is 23.9 µM.

And the TGI (HCC-2998 colon)?
The TGI was 91.9 µM.

And the GI50 (HCT-116 colon)?
Its GI50 is 3.51 µM.

What about the TGI (HCT-116 colon) of the same molecule?
Its TGI is 11.5 µM.

What about the GI50 (HCT-15 colon) of the same molecule?
The GI50 was 4.16 µM.

And the TGI (HCT-15 colon)?
Its TGI is > 100 µM.

And the GI50 (HL-60(TB) leukemia)?
The GI50 was 2.87 µM.

What about the TGI (HL-60(TB) leukemia) of the same molecule?
The TGI was 5.3 µM.

And the GI50 (HOP-62 NSCLC)?
The GI50 was 9.77 µM.

What about the TGI (HOP-62 NSCLC) of the same molecule?
The TGI was > 100 µM.

And the GI50 (HOP-92 NSCLC)?
Its GI50 is 1.7 µM.

And the TGI (HOP-92 NSCLC)?
Its TGI is 3.33 µM.

What about the GI50 (HS 578T breast) of the same molecule?
The GI50 was 2.08 µM.

What about the TGI (HS 578T breast) of the same molecule?
The TGI was 7.41 µM.

And the GI50 (HT29 colon)?
The GI50 was 3.17 µM.

And the TGI (HT29 colon)?
Its TGI is 12.1 µM.

And the GI50 (IGROV1 ovarian)?
Its GI50 is 2.22 µM.

What about the TGI (IGROV1 ovarian) of the same molecule?
The TGI was 5.21 µM.

What about the GI50 (KM12 colon) of the same molecule?
The GI50 was 0.346 µM.

What about the TGI (KM12 colon) of the same molecule?
The TGI was > 100 µM.

And the GI50 (LOX IMVI melanoma)?
The GI50 was 4.08 µM.

What about the TGI (LOX IMVI melanoma) of the same molecule?
The TGI was 11 µM.

What about the GI50 (M14 melanoma) of the same molecule?
The GI50 was 3.72 µM.

What about the TGI (M14 melanoma) of the same molecule?
The TGI was 15.3 µM.

What about the GI50 (MALME-3M melanoma) of the same molecule?
The GI50 was 1.81 µM.

And the TGI (MALME-3M melanoma)?
The TGI was 4.39 µM.

What about the GI50 (MCF7 breast) of the same molecule?
Its GI50 is 4.99 µM.

What about the TGI (MCF7 breast) of the same molecule?
Its TGI is 31.6 µM.

What about the GI50 (MDA-MB-231 breast) of the same molecule?
Its GI50 is 2.38 µM.

What about the TGI (MDA-MB-231 breast) of the same molecule?
The TGI was 6.83 µM.

And the GI50 (MDA-MB-435 melanoma)?
The GI50 was 7.46 µM.

What about the TGI (MDA-MB-435 melanoma) of the same molecule?
Its TGI is 73.4 µM.

And the GI50 (MDA-MB-468 breast)?
Its GI50 is 3.51 µM.

And the TGI (MDA-MB-468 breast)?
Its TGI is 8.5 µM.

What about the GI50 (MOLT-4 leukemia) of the same molecule?
Its GI50 is 1.45 µM.

And the TGI (MOLT-4 leukemia)?
The TGI was 2.99 µM.

What about the GI50 (NCI-H226 lung) of the same molecule?
Its GI50 is 0.906 µM.

What about the TGI (NCI-H226 lung) of the same molecule?
Its TGI is 3.39 µM.

And the GI50 (NCI-H23 lung)?
The GI50 was 2.65 µM.

What about the TGI (NCI-H23 lung) of the same molecule?
The TGI was 7.77 µM.

And the GI50 (NCI-H322M lung)?
The GI50 was 3.91 µM.

What about the TGI (NCI-H322M lung) of the same molecule?
Its TGI is 13.9 µM.

What about the GI50 (NCI-H460 NSCLC) of the same molecule?
The GI50 was 4.58 µM.

What about the TGI (NCI-H460 NSCLC) of the same molecule?
Its TGI is 19 µM.

And the GI50 (NCI-H522 lung)?
The GI50 was 2.51 µM.

What about the TGI (NCI-H522 lung) of the same molecule?
The TGI was 6.54 µM.

And the GI50 (NCI/ADR-RES ovarian)?
The GI50 was 2.9 µM.

What about the TGI (NCI/ADR-RES ovarian) of the same molecule?
Its TGI is 8.81 µM.

And the GI50 (OVCAR-3 ovarian)?
The GI50 was 5.25 µM.

What about the TGI (OVCAR-3 ovarian) of the same molecule?
Its TGI is 20.1 µM.

What about the GI50 (OVCAR-4 ovarian) of the same molecule?
The GI50 was 5.71 µM.

And the TGI (OVCAR-4 ovarian)?
The TGI was 25 µM.

And the GI50 (OVCAR-5 ovarian)?
The GI50 was 4.4 µM.

And the TGI (OVCAR-5 ovarian)?
The TGI was 21.2 µM.

What about the GI50 (OVCAR-8 ovarian) of the same molecule?
The GI50 was 4.45 µM.

And the TGI (OVCAR-8 ovarian)?
The TGI was 41 µM.

What about the GI50 (PC-3 prostate) of the same molecule?
The GI50 was 6.29 µM.

What about the TGI (PC-3 prostate) of the same molecule?
The TGI was > 100 µM.

And the GI50 (RPMI-8226 leukemia)?
Its GI50 is 3.79 µM.

What about the TGI (RPMI-8226 leukemia) of the same molecule?
The TGI was 15.1 µM.

What about the GI50 (RXF 393 renal) of the same molecule?
Its GI50 is 1.65 µM.

What about the TGI (RXF 393 renal) of the same molecule?
The TGI was 4.28 µM.

And the GI50 (SF-268 CNS)?
The GI50 was 3.06 µM.

And the TGI (SF-268 CNS)?
The TGI was 8.86 µM.

What about the GI50 (SF-295 CNS) of the same molecule?
Its GI50 is 3.18 µM.

What about the TGI (SF-295 CNS) of the same molecule?
Its TGI is 11.5 µM.

And the GI50 (SF-539 CNS)?
Its GI50 is 1.24 µM.

And the TGI (SF-539 CNS)?
Its TGI is 2.95 µM.

And the GI50 (SK-MEL-28 melanoma)?
The GI50 was 4.26 µM.

And the TGI (SK-MEL-28 melanoma)?
The TGI was 21 µM.

What about the GI50 (SK-MEL-5 melanoma) of the same molecule?
Its GI50 is 3.35 µM.

And the TGI (SK-MEL-5 melanoma)?
The TGI was 11.8 µM.

What about the GI50 (SK-OV-3 ovarian) of the same molecule?
The GI50 was 6.78 µM.

What about the TGI (SK-OV-3 ovarian) of the same molecule?
Its TGI is 67.1 µM.

And the GI50 (SN12C renal)?
Its GI50 is 2.95 µM.

What about the TGI (SN12C renal) of the same molecule?
The TGI was 9.88 µM.

And the GI50 (SNB-19 CNS)?
Its GI50 is 16.6 µM.

And the TGI (SNB-19 CNS)?
Its TGI is > 100 µM.

And the GI50 (SNB-75 CNS)?
Its GI50 is 2.53 µM.

What about the TGI (SNB-75 CNS) of the same molecule?
Its TGI is 6.7 µM.

What about the GI50 (SR leukemia) of the same molecule?
The GI50 was 3.73 µM.

What about the TGI (SR leukemia) of the same molecule?
The TGI was 5.34 µM.

And the GI50 (SW-620 colon)?
The GI50 was 2.82 µM.

What about the TGI (SW-620 colon) of the same molecule?
The TGI was 7.18 µM.

And the GI50 (T-47D breast)?
Its GI50 is 4.17 µM.

And the TGI (T-47D breast)?
The TGI was 23.1 µM.

What about the GI50 (TK-10 renal) of the same molecule?
Its GI50 is 19.9 µM.

And the TGI (TK-10 renal)?
Its TGI is > 100 µM.

And the GI50 (U251 glioblastoma)?
The GI50 was 9.48 µM.

What about the TGI (U251 glioblastoma) of the same molecule?
Its TGI is > 100 µM.

What about the GI50 (UACC-257 melanoma) of the same molecule?
The GI50 was 11.9 µM.

And the TGI (UACC-257 melanoma)?
The TGI was 30.3 µM.

And the GI50 (UACC-62 melanoma)?
The GI50 was 2.9 µM.

And the TGI (UACC-62 melanoma)?
The TGI was 13.5 µM.

What about the GI50 (UO-31 renal) of the same molecule?
The GI50 was 2.75 µM.

What about the TGI (UO-31 renal) of the same molecule?
Its TGI is 5.98 µM.
